Data reported in ChEMBL document CHEMBL1201862, “PubChem BioAssay data set” (2004).
Active and inactive are the calls of the source.

Legend:
[1] = Luminescence Cell-Based Dose Confirmation HTS to Identify Activators of 5'UTR Stem-Loop Driven Alpha-Synuclein mRNA Translation in H4 Neuroglioblastoma Cells. [Related pubchem assays: 1829 (Project Summary), 1814 (Primary HTS)]; type: functional
[2] = Luminescence Cell-Based Dose Response HTS to Identify Activators of Luciferase Translation or Activity in H4 […] Cells. [Related pubchem assays: 1829 (Project Summary), 1814 (Primary HTS)]; type: functional
H4 = assay: Luminescence Cell-Based Dose Response HTS to Identify Activators of 5'UTR Stem-Loop Driven Prion Protein mRNA Translation in H4 Neuroglioblastoma Cells. [Related pubchem assays: 1829 (Project Summary), 1814 (Primary HTS)]; type: functional; details: Homo sapiens
Cytochrome P450 2C9 = Cytochrome P450 2C9 (Homo sapiens, UniProt P11712)
[3] = inhibitors of intracellular T. cruzi replication, confirmation, NIH3T3 host cells, beta-gal luminescence (AID 2044); type: functional, cell-based;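 also: intracellular parasites grown in NIH/3T3 mouse fibroblasts as host cells; luminescent beta-galactosidase reporter signal from transgenic T. cruzi replicating inside host cells; inhibitors lower the luminescence signal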
[4] = cytotoxicity toward NIH3T3 fibroblasts, dose response, counter-screen, cell-based, ATP luminescence, mouse fibroblasts (AID 2010); type: functional;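 also: cells exposed to compound for about 90 hours before reading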
Cytochrome P450 1A2 = target: T1, Cytochrome P450 1A2 (Homo sapiens, UniProt P05177);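 also: PubChem cytochrome P450 panel assay, CYP1A2 panel member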
T1 sequence (P05177 whole entry): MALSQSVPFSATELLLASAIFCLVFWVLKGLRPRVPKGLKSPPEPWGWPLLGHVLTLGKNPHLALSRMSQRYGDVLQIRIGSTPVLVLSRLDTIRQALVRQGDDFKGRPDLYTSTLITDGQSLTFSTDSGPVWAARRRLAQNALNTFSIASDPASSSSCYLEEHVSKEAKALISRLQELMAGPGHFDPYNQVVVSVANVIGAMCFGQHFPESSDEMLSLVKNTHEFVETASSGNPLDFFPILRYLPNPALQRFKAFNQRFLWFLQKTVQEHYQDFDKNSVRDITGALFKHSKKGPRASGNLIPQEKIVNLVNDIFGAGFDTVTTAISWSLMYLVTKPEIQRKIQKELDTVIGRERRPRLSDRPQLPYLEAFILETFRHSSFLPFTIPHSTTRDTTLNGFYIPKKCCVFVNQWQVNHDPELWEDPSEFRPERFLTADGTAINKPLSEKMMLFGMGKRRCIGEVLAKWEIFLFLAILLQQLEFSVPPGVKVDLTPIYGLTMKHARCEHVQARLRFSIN

Cytochrome P450 2C19 = Cytochrome P450 2C19 (Homo sapiens, UniProt P33261); assay: Cytochrome panel assay with activity outcomes. Panel member name: p450-cyp2c19 Compounds with AC50 equal or less than 10 uM are considered active; type: functional; details: read-out: AC50
[5] = target: T2, Corticotropin-releasing factor receptor 2/Corticotropin-releasing factor-binding protein (Homo sapiens, UniProt P24387+Q13324); assay: activators of CRF receptor 2 with binding protein – uHTS hits, confirmation (AID 602473); type: functional; details: read-out: EC50_Mean
T2 sequence (Q13324 whole entry): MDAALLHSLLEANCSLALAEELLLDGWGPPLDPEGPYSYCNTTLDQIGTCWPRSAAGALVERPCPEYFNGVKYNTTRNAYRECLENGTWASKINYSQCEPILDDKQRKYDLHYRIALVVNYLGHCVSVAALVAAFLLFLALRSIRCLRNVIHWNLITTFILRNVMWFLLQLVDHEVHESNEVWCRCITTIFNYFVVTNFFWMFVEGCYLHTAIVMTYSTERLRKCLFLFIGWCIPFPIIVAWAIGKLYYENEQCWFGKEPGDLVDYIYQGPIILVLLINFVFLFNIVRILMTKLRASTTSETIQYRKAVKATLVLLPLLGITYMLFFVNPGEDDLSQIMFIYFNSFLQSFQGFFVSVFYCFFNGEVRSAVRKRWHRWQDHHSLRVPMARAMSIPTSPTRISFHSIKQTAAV
T2 sequence (P24387 whole entry): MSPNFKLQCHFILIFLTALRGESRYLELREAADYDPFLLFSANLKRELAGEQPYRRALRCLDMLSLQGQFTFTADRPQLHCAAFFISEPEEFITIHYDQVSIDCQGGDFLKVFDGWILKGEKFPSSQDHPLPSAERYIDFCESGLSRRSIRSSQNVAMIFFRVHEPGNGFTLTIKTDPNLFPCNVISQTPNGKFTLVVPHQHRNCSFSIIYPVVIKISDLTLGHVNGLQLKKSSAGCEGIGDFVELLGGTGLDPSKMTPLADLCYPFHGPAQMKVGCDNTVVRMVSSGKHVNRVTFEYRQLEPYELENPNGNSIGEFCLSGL

Sequence of Cytochrome P450 2C19 (P33261 whole entry): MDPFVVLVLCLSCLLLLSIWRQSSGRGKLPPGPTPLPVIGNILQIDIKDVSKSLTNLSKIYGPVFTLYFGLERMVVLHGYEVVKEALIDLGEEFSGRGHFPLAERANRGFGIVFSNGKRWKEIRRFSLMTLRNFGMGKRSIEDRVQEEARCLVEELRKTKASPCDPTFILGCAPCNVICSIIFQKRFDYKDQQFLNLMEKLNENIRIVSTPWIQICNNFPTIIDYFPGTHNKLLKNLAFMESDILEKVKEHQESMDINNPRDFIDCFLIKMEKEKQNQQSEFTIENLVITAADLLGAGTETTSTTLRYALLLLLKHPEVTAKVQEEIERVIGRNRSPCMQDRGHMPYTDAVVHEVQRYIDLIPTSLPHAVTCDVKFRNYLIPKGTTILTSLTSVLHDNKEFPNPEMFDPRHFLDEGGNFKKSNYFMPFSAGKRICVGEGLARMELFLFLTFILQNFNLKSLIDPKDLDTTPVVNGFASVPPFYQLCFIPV
Sequence of Cytochrome P450 2C9 (P11712 whole entry): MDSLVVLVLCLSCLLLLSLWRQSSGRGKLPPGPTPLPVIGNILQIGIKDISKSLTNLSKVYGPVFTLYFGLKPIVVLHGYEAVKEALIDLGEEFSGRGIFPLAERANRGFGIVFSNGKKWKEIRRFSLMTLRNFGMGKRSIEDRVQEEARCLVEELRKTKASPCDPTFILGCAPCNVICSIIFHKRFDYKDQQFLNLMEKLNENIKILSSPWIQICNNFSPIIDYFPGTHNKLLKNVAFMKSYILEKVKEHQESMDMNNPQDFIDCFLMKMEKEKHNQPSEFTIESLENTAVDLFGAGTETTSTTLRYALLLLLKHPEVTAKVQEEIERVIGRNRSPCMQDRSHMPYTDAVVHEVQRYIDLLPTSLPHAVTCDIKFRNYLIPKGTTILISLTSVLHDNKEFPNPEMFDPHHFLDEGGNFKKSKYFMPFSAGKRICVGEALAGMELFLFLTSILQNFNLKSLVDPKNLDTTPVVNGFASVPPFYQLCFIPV

Row | SMILES | EC50 [1] | EC50 [2] | EC50 (H4) | further results
1 | Cc1cc(C)n(CCc2nc(-c3cc4ccccc4o3)cs2)n1 | 7.17 µM (active) | 9.04 µM (active) | 60.2 µM (active) | 
2 | O=C(CCl)NN1C(=O)NC(c2ccccc2)(c2ccccc2)C1=O | 13.1 µM (active) | > 120 µM (not active) | > 120 µM (not active) | 
3 | C=CC(=O)NC(C)(C)Cc1ccccc1 |  |  |  | AC50 (Cytochrome P450 2C9): 10 µM (inconclusive)
4 | Cc1c(C)n(CCCN(C)C)c2ncnc(NCc3ccccc3)c12 |  |  |  | EC50 [3]: 911 nM (active); EC50 [4]: > 60 µM (not active)
5 | CCOc1ccc2nc(O)c(CN(CCc3ccccc3)C(=O)N3CCOCC3)cc2c1 |  |  |  | AC50 (Cytochrome P450 1A2): 17.8 µM (inconclusive)
6 | COc1ccc(N2C(=O)CCC(C(=O)Nc3ccccn3)C2c2ccc(OC)c(OC)c2)cc1 (centres undefined) |  |  |  | AC50 (Cytochrome P450 2C9): 3.16 µM (inconclusive)
7 | CCc1nnc(NC(=O)CSc2nc(C3CCCCC3)nc3ccccc23)s1 |  |  |  | AC50 (Cytochrome P450 2C19): 5.01 µM (inconclusive); AC50 (Cytochrome P450 2C9): 3.55 µM (inconclusive)
8 | O=C(/C=C/c1ccco1)NCCc1ccccc1 | 10.9 µM (active) | 14.5 µM (active) | > 120 µM (not active) | 
9 | CCOc1ccc(NC(=O)c2ccc(Br)o2)c([N+](=O)[O-])c1 |  |  |  | AC50 (Cytochrome P450 1A2): 3.55 µM (inconclusive)
10 | O=[N+]([O-])c1ccc(-[n+]2c(-c3ccccc3)cc(-c3ccccc3)cc2-c2ccccc2)cc1.[O-][Cl+3]([O-])([O-])[O-] |  |  |  | EC50 [3]: 264 nM (active); EC50 [5]: 5.02 µM (active); EC50 [4]: > 60 µM (not active)
11 | CN1CCc2c(sc3c2C(=O)NC(c2cccc(OC(=O)c4cccs4)c2)N3)C1 (centres undefined) | 6.46 µM (active) | 8.11 µM (active) | 40 µM (active) | 
12 | O=C(Nc1ncc(S(=O)(=O)c2ccc([N+](=O)[O-])cc2)s1)c1ccccc1F |  |  |  | EC50 [5]: 4.81 µM (active)
13 | O=c1c2c3c(sc2nc2n1N=C(c1cccs1)CS2)CCCC3 |  |  | 0.118 µM (active) | 
14 | COc1ccc(C(=O)NCCn2ccc3ccccc32)cc1 | 0.185 µM (active) | 0.132 µM (active) | 0.488 µM (active) | 
15 | CCOC(=O)CSc1nc(N2CCOCC2)c2c(c1C#N)CC(C)(C)N(C)C2 |  |  |  | EC50 [5]: > 53 µM (inactive)
16 | CC1(C)CN=C(N(Cc2ccccc2)C(=O)Nc2ccccc2)S1 | 12.5 µM (active) | 13.1 µM (active) | 18.8 µM (active) | 
17 | CC(=O)c1ccc(S(=O)(=O)N(Cc2cc3cc4c(cc3nc2O)OCCO4)CC2CCCO2)cc1 (centres undefined) | 13.6 µM (active) | 6.68 µM (active) | 26.3 µM (active) | 
18 | CCCc1cc2c(cc1NC(=O)c1ccccc1C)OCO2 |  |  |  | AC50 (Cytochrome P450 2C9): 0.0562 µM (inconclusive)
19 | NC(=O)N/N=C\c1ccc([N+](=O)[O-])o1 |  |  |  | AC50 (Cytochrome P450 1A2): 12.6 µM (inconclusive)
20 | Cc1nc2ncnn2c(C)c1CCC(=O)NC(C)c1ccc2c(c1)OCCO2 (centres undefined) |  |  |  | AC50 (Cytochrome P450 2C19): 8.91 µM (inconclusive)
21 | Fc1ccccc1OCCSc1[nH]cnc2ncnc1-2 | > 120 µM (not active) | 13 µM (active) | 14.9 µM (active) | 
22 | Cc1ccc(-n2c(=O)[nH]cc(C(=O)N3CCc4ccccc43)c2=O)cc1 |  |  |  | AC50 (Cytochrome P450 2C9): 1 µM (inconclusive)
23 | Cc1nnc(O)n1-c1cccc(C(F)(F)F)c1 |  |  |  | AC50 (Cytochrome P450 1A2): 5.62 µM (inconclusive)
24 | O=C(N/N=C/c1ccc([N+](=O)[O-])cc1)c1ccc(COc2ccccc2-c2ccccc2)cc1 |  |  |  | EC50 [3]: 1550 nM (active); EC50 [4]: > 30 µM (not active)
25 | COc1cc(/C=N/NC2=NC(=O)C(CC(=O)O)S2)ccc1OCc1cccc(Cl)c1 (centres undefined) | 6.12 µM (active) | 10.1 µM (active) | 19.7 µM (active) | 
26 | Cc1cccc2c1OCC/C2=N\NC(=O)COc1ccccc1Cl |  |  |  | AC50 (Cytochrome P450 2C19): 0.708 µM (inconclusive)
27 | O=C1C=C(c2ccc3[nH]ccc3c2)CCC1 | 16 µM (active) | 46.4 µM (active) | 9.94 µM (active) | 
28 | Cc1ccc(NCc2ccccc2)cc1 [N-BENZYL-4-METHYLANILINE] |  |  |  | EC50 [3]: 5250 nM (active); EC50 [4]: > 60 µM (not active)
